Among the data in patent publication US10975080B2, “Compounds and compositions for inhibiting the activity of SHP2” (NOVARTIS AG, priority 2015, dated 2021) are IC50 values, retold here.

This assay deals with SHP2 (Homo sapiens (Human), UniProt Q06124). The experiment in a line: SHP2 Allosteric Inhibition Assay. Type of assay: biochemical. Particulars: 0.5 nM SHP2 with 0.5 μM peptide IRS1_pY1172(dPEG8)pY1222; surrogate substrate DiFMUP; 25° C.; read-out: SHP2 IC50. The text has this: SHP2 Allosteric Inhibition Assay
Chain of SHP2 (Q06124 whole entry): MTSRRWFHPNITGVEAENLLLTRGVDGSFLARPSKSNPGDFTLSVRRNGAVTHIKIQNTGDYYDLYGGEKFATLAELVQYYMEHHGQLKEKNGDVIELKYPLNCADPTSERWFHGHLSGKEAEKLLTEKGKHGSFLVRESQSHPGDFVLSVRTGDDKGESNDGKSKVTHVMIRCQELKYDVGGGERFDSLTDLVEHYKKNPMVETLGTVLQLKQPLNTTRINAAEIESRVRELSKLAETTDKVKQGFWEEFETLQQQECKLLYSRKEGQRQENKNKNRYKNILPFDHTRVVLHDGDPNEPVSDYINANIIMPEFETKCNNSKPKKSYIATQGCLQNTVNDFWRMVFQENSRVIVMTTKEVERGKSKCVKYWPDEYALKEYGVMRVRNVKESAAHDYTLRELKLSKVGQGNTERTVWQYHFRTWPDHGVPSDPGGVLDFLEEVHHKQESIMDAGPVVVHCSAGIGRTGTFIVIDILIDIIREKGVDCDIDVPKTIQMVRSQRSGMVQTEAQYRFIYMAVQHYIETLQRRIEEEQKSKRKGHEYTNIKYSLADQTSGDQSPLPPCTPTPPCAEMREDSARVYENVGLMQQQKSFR
SHP2 is allosterically activated through binding of bis-tyrosyl-phosphorylated peptides to its Src Homology 2 (SH2) domains. The latter activation step leads to the release of the auto-inhibitory interface of SHP2, which in turn renders the SHP2 protein tyrosine phosphatase (PTP) active and available for substrate recognition and reaction catalysis. The catalytic activity of SHP2 was monitored using the surrogate substrate DiFMUP in a prompt fluorescence assay format.
After 30-60 minutes incubation at 25° C., the surrogate substrate DiFMUP (Invitrogen, cat #D6567) was added to the reaction and incubated at 25° C. for 30 minutes. […] The inhibitor dose response curves were analyzed using normalized IC50 regression curve fitting with control based normalization.
As for `Cn1c(N2CCC(C)(CN)CC2)nc2[nH]nc(-c3cccc(C(F)(F)F)c3Cl)c2c1=O` [Example 26, 6-(4-(aminomethyl)-4-methylpiperidin-1-yl)-3-(2-chloro-3-(trifluoromethyl)phenyl)-5-methyl-1,5-dihydro-4H-pyrazolo[3,4-d]pyrimidin-4-one], the IC50 was 127 nM. With `C[C@@H]1OCC2(CCN(c3nc4[nH]nc(-c5c(F)ccc(Cl)c5Cl)c4c(=O)n3C)CC2)[C@@H]1N` [Example 27, 6-((3S,4S)-4-amino-3-methyl-2-oxa-8-azaspiro[4.5]decan-8-yl)-3-(2,3-dichloro-6-fluorophenyl)-5-methyl-1,5-dihydro-4H-pyrazolo[3,4-d]pyrimidin-4-one] the figure was 450 nM; with `Cn1c(N2CCC(C)(CN)CC2)nc2[nH]nc(-c3ccncc3Cl)c2c1=O` [Example 28, 6-(4-(aminomethyl)-4-methylpiperidin-1-yl)-3-(3-chloropyridin-4-yl)-5-methyl-1,5-dihydro-4H-pyrazolo[3,4-d]pyrimidin-4-one], 312 nM. Regarding `C[C@@H]1OCC2(CCN(c3nc4[nH]nc(-c5ccnc(NC6CCC6)c5Cl)c4c(=O)n3C)CC2)[C@@H]1N` [Example 29, 6-((3S,4S)-4-amino-3-methyl-2-oxa-8-azaspiro[4.5]decan-8-yl)-3-(3-chloro-2-(cyclobutylamino)pyridin-4-yl)-5-methyl-1,5-dihydro-4H-pyrazolo[3,4-d]pyrimidin-4-one], the IC50 amounted to 35 nM. Under `C[C@@H]1OCC2(CCN(c3nc4[nH]nc(-c5ccnc(N6CCOCC6)c5Cl)c4c(=O)n3C)CC2)[C@@H]1N` [Example 30, 6-((3S,4S)-4-amino-3-methyl-2-oxa-8-azaspiro[4.5]decan-8-yl)-3-(3-chloro-2-morpholinopyridin-4-yl)-5-methyl-1,5-dihydro-4H-pyrazolo[3,4-d]pyrimidin-4-one] stands 103 nM; under `C[C@@H]1OCC2(CCN(c3nc4[nH]nc(-c5ccnc(N6CCCC6)c5Cl)c4c(=O)n3C)CC2)[C@@H]1N` [Example 31, 6-((3S,4S)-4-amino-3-methyl-2-oxa-8-azaspiro[4.5]decan-8-yl)-3-(3-chloro-2-(pyrrolidin-1-yl)pyridin-4-yl)-5-methyl-1,5-dihydro-4H-pyrazolo[3,4-d]pyrimidin-4-one], 12 nM. With `CNc1nccc(-c2n[nH]c3nc(N4CCC5(CC4)CO[C@@H](C)[C@H]5N)n(C)c(=O)c23)c1Cl` [Example 32, 6-((3S,4S)-4-amino-3-methyl-2-oxa-8-azaspiro[4.5]decan-8-yl)-3-(3-chloro-2-(methylamino)pyridin-4-yl)-5-methyl-1,5-dihydro-4H-pyrazolo[3,4-d]pyrimidin-4-one] the figure was 54 nM; with `C[C@@H]1OCC2(CCN(c3nc4[nH]nc(-c5ccnc(Cl)c5Br)c4c(=O)n3C)CC2)[C@@H]1N` [Example 33, 6-((3S,4S)-4-amino-3-methyl-2-oxa-8-azaspiro[4.5]decan-8-yl)-3-(3-bromo-2-chloropyridin-4-yl)-5-methyl-1,5-dihydro-4H-pyrazolo[3,4-d]pyrimidin-4-one], 13 nM; with `C[C@@H]1OCC2(CCN(c3nc4[nH]nc(-c5ccnc(Br)c5)c4c(=O)n3C)CC2)[C@@H]1N` [Example 34, 6-((3S,4S)-4-amino-3-methyl-2-oxa-8-azaspiro[4.5]decan-8-yl)-3-(2-bromopyridin-4-yl)-5-methyl-1,5-dihydro-4H-pyrazolo[3,4-d]pyrimidin-4-one], 27 nM. Under `CNc1nccc(-c2n[nH]c3nc(N4CCC5(CC4)CO[C@@H](C)[C@H]5N)n(C)c(=O)c23)c1Br` [Example 35, 6-((3S,4S)-4-amino-3-methyl-2-oxa-8-azaspiro[4.5]decan-8-yl)-3-(3-bromo-2(methylamino)pyridin-4-yl)-5-methyl-1,5-dihydro-4H-pyrazolo[3,4-d]pyrimidin-4-one] stands 34 nM; under `C[C@H]1C[C@@H](N)C2(CCN(c3nc4[nH]nc(-c5ccncc5)c4c(=O)n3C)CC2)C1` [Example 36, 6-((1R,3R)-1-amino-3-methyl-8-azaspiro[4.5]decan-8-yl)-5-methyl-3-(pyridin-4-yl)-1,5-dihydro-4H-pyrazolo[3,4-d]pyrimidin-4-one], 9 nM; under `Cn1c(N2CCC3(CC2)C[C@H](F)C[C@H]3N)nc2[nH]nc(-c3ccnc(N)c3Cl)c2c1=O` [Example 37, 3-(2-amino-3-chloropyridin-4-yl)-6-((1R,3S)-1-amino-3-fluoro-8-azaspiro[4.5]decan-8-yl)-5-methyl-1,5-dihydro-4H-pyrazolo[3,4-d]pyrimidin-4-one], 27 nM. Take `Cn1c(N2CCC3(CC2)C[C@H](F)C[C@H]3N)nc2[nH]nc(-c3ccnc(NC4CC4)c3Cl)c2c1=O` [Example 38, 6-((1R,3S)-1-amino-3-fluoro-8-azaspiro[4.5]decan-8-yl)-3-(3-chloro-2-(cyclopropylamino)pyridin-4-yl)-5-methyl-1,5-dihydro-4H-pyrazolo[3,4-d]pyrimidin-4-one]: the IC50 stood at 11 nM.

`Cn1c(N2CCC3(CC2)C[C@H](F)C[C@H]3N)nc2[nH]nc(-c3ccccc3)c2c1=O` [Example 39, 6-((1R,3S)-1-amino-3-fluoro-8-azaspiro[4.5]decan-8-yl)-5-methyl-3-phenyl-1,5-dihydro-4H-pyrazolo[3,4-d]pyrimidin-4-one]: the IC50 stood at 37 nM. With `Cc1nc(N(C)C)ccc1-c1n[nH]c2nc(N3CCC4(CC3)CO[C@@H](C)[C@H]4N)n(C)c(=O)c12` [Example 40, 6-((3S,4S)-4-amino-3-methyl-2-oxa-8-azaspiro[4.5]decan-8-yl)-3-(6-(dimethylamino)-2-methylpyridin-3-yl)-5-methyl-1,5-dihydro-4H-pyrazolo[3,4-d]pyrimidin-4-one] the figure was 89 nM; with `C[C@@H]1OCC2(CCN(c3nc4[nH]nc(-c5ccccc5)c4c(=O)n3C)CC2)[C@@H]1N` [Example 41, 6-((3S,4S)-4-amino-3-methyl-2-oxa-8-azaspiro[4.5]decan-8-yl)-5-methyl-3-phenyl-1,5-dihydro-4H-pyrazolo[3,4-d]pyrimidin-4-one], 33 nM; with `COc1ccc(-c2n[nH]c3nc(N4CCC5(CC4)CO[C@@H](C)[C@H]5N)n(C)c(=O)c23)cc1` [Example 42, 6-((3S,4S)-4-amino-3-methyl-2-oxa-8-azaspiro[4.5]decan-8-yl)-3-(4-methoxyphenyl)-5-methyl-1,5-dihydro-4H-pyrazolo[3,4-d]pyrimidin-4-one], 20 nM. Under `C[C@@H]1OCC2(CCN(c3nc4[nH]nc(-c5ccnc(N6CC[C@@H](O)C6)c5Cl)c4c(=O)n3C)CC2)[C@@H]1N` [Example 43, 6-((3S,4S)-4-amino-3-methyl-2-oxa-8-azaspiro[4.5]decan-8-yl)-3-(3-chloro-2-((R)-3-hydroxypyrrolidin-1-yl)pyridin-4-yl)-5-methyl-1,5-dihydro-4H-pyrazolo[3,4-d]pyrimidin-4-one] stands 84 nM. Under `C[C@@H]1OCC2(CCN(c3nc4[nH]nc(-c5ccnc(Cl)c5)c4c(=O)n3C)CC2)[C@@H]1N` [Example 44, 6-((3S,4S)-4-amino-3-methyl-2-oxa-8-azaspiro[4.5]decan-8-yl)-3-(2-chloropyridin-4-yl)-5-methyl-1,5-dihydro-4H-pyrazolo[3,4-d]pyrimidin-4-one] stands 16 nM; under `C[C@@H]1OCC2(CCN(c3nc4[nH]nc(-c5ccnc(N)c5)c4c(=O)n3C)CC2)[C@@H]1N` [Example 45, 6-((3S,4S)-4-amino-3-methyl-2-oxa-8-azaspiro[4.5]decan-8-yl)-3-(2-aminopyridin-4-yl)-5-methyl-1,5-dihydro-4H-pyrazolo[3,4-d]pyrimidin-4-one], 37 nM. Turning to `CNc1cc(-c2n[nH]c3nc(N4CCC5(CC4)CO[C@@H](C)[C@H]5N)n(C)c(=O)c23)ccn1` [Example 46, 6-((3S,4S)-4-amino-3-methyl-2-oxa-8-azaspiro[4.5]decan-8-yl)-5-methyl-3-(2-(methylamino)pyridin-4-yl)-1,5-dihydro-4H-pyrazolo[3,4-d]pyrimidin-4-one], the IC50 is 50 nM. With `Cc1nc(N)ccc1-c1n[nH]c2nc(N3CCC4(CC3)CO[C@@H](C)[C@H]4N)n(C)c(=O)c12` [Example 47, 3-(6-amino-2-methylpyridin-3-yl)-6-((3S,4S)-4-amino-3-methyl-2-oxa-8-azaspiro[4.5]decan-8-yl)-5-methyl-1,5-dihydro-4H-pyrazolo[3,4-d]pyrimidin-4-one] the figure was 37 nM. Under `Cc1nc(N)ccc1-c1n[nH]c2nc(N3CCC4(CC3)C[C@@H](C)C[C@H]4N)n(C)c(=O)c12` [Example 48, 3-(6-amino-2-methylpyridin-3-yl)-6-((1R,3R)-1-amino-3-methyl-8-azaspiro[4.5]decan-8-yl)-5-methyl-1,5-dihydro-4H-pyrazolo[3,4-d]pyrimidin-4-one] stands 16 nM.

As for `Cc1nc(N)ccc1-c1n[nH]c2nc(N3CCC4(CC3)CC(F)(F)C[C@H]4N)n(C)c(=O)c12` [Example 49, (R)-3-(6-amino-2-methylpyridin-3-yl)-6-(1-amino-3,3-difluoro-8-azaspiro[4.5]decan-8-yl)-5-methyl-1,5-dihydro-4H-pyrazolo[3,4-d]pyrimidin-4-one], the IC50 is 9 nM. Under `Cn1c(N2CCC3(CC2)CC(F)(F)C[C@H]3N)nc2[nH]nc(-c3ccnc(NC4CC4)c3Cl)c2c1=O` [Example 50, (R)-6-(1-amino-3,3-difluoro-8-azaspiro[4.5]decan-8-yl)-3-(3-chloro-2-(cyclopropylamino)pyridin-4-yl)-5-methyl-1,5-dihydro-4H-pyrazolo[3,4-d]pyrimidin-4-one] stands 35 nM.
